{"source": "ChEMBL document CHEMBL3351302", "about": "“Design, synthesis and biological evaluation of 4-anilinothieno[2,3-d]pyrimidine-based hydroxamic acid derivatives as novel histone deacetylase inhibitors” (Bioorg Med Chem, 2014)"}
{"target": "Histone deacetylase 1 (Homo sapiens, UniProt Q13547)", "sequence (Q13547 whole entry)": "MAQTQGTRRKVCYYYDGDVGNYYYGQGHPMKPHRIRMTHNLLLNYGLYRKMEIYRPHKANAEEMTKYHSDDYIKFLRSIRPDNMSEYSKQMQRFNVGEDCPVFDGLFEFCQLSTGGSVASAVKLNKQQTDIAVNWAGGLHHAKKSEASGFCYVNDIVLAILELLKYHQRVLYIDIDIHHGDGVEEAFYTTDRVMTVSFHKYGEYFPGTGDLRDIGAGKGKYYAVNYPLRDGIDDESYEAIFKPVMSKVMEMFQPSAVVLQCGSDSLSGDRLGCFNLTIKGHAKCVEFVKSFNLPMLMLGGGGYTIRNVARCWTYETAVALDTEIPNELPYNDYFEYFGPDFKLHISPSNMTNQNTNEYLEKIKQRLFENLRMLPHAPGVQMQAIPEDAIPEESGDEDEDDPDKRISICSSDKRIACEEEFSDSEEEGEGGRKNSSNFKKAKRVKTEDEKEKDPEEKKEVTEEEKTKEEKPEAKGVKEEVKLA", "assay": "Inhibition of human recombinant full length HDAC1 using (Ac)-Lys-Tyr-Lys(-acetyl)-AMC substrate after 30 mins", "conditions": "not given", "units": {"IC50": "nM"}}
{"molecule": "O=C(CCCCCCC(=O)Nc1cc2c(Nc3ccc(F)cc3F)ncnc2s1)NO", "IC50": 10.1}
{"molecule": "O=C(CCCCCCC(=O)Nc1cc2c(Nc3cccc(Cl)c3)ncnc2s1)NO", "IC50": 3.24}
{"molecule": "O=C(CCCCCCC(=O)Nc1cc2c(Nc3ccc(I)cc3F)ncnc2s1)NO", "IC50": 6.24}
{"molecule": "O=C(CCCCCC(=O)Nc1cc2c(Nc3ccc(Cl)c(C(F)(F)F)c3)ncnc2s1)NO", "IC50": 40.8}
{"molecule": "Cc1ccc(Nc2ncnc3sc(NC(=O)CCCCCC(=O)NO)cc23)cc1", "IC50": 14}
{"molecule": "O=C(CCCCCC(=O)Nc1cc2c(Nc3ccc(F)c(Cl)c3)ncnc2s1)NO", "IC50": 35.9}
{"molecule": "O=C(CCCCCCC(=O)Nc1cc2c(Nc3ccc(Cl)c(C(F)(F)F)c3)ncnc2s1)NO", "IC50": 21.7}
{"molecule": "O=C(CCCCCCC(=O)Nc1cc2c(Nc3ccc(Br)cc3F)ncnc2s1)NO", "IC50": 13.5}
{"molecule": "O=C(CCCCCC(=O)Nc1cc2c(Nc3ccccc3)ncnc2s1)NO", "IC50": 11.8}
{"molecule": "O=C(CCCCC(=O)Nc1cc2c(Nc3ccc(F)c(Cl)c3)ncnc2s1)NO", "IC50": 131}
{"molecule": "Cc1ccc(Nc2ncnc3sc(NC(=O)CCCCCC(=O)NO)cc23)cc1C", "IC50": 29.8}
{"molecule": "O=C(CCCCC(=O)Nc1cc2c(Nc3ccc(Cl)c(C(F)(F)F)c3)ncnc2s1)NO", "IC50": 218}
{"molecule": "O=C(CCCCCCC(=O)Nc1cc2c(Nc3cccc(Cl)c3F)ncnc2s1)NO", "IC50": 7.78}
{"target": "Histone deacetylase 3 (Homo sapiens, UniProt O15379)", "sequence (O15379 whole entry)": "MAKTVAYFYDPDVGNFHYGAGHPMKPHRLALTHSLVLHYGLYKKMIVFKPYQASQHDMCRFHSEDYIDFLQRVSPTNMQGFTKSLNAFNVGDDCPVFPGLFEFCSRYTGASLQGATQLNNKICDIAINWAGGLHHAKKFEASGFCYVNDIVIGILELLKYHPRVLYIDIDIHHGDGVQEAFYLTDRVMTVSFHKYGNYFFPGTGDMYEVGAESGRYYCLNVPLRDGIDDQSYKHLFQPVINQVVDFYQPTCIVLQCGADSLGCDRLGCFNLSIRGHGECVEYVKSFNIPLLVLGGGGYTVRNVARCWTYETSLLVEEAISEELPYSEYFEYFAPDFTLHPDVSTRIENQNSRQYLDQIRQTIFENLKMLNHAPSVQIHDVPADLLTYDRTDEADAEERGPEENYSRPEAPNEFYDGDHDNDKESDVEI", "assay": "Inhibition of human recombinant full length HDAC3 using (Ac)-Lys-Tyr-Lys(-acetyl)-AMC substrate after 30 mins", "conditions": "not given", "units": {"IC50": "nM"}}
{"molecule": "O=C(CCCCCCC(=O)Nc1cc2c(Nc3ccc(F)cc3F)ncnc2s1)NO", "IC50": 16.9}
{"molecule": "O=C(CCCCCCC(=O)Nc1cc2c(Nc3cccc(Cl)c3)ncnc2s1)NO", "IC50": 6.46}
{"molecule": "O=C(CCCCCCC(=O)Nc1cc2c(Nc3ccc(I)cc3F)ncnc2s1)NO", "IC50": 13.5}
{"molecule": "O=C(CCCCCC(=O)Nc1cc2c(Nc3ccc(Cl)c(C(F)(F)F)c3)ncnc2s1)NO", "IC50": 48.3}
{"molecule": "Cc1ccc(Nc2ncnc3sc(NC(=O)CCCCCC(=O)NO)cc23)cc1", "IC50": 9.33}
{"molecule": "O=C(CCCCCC(=O)Nc1cc2c(Nc3ccc(F)c(Cl)c3)ncnc2s1)NO", "IC50": 37.7}
{"molecule": "O=C(CCCCCCC(=O)Nc1cc2c(Nc3ccc(Cl)c(C(F)(F)F)c3)ncnc2s1)NO", "IC50": 23.5}
{"molecule": "O=C(CCCCCCC(=O)Nc1cc2c(Nc3ccc(Br)cc3F)ncnc2s1)NO", "IC50": 11.9}
{"molecule": "O=C(CCCCCC(=O)Nc1cc2c(Nc3ccccc3)ncnc2s1)NO", "IC50": 20.8}
{"molecule": "O=C(CCCCC(=O)Nc1cc2c(Nc3ccc(F)c(Cl)c3)ncnc2s1)NO", "IC50": 127}
{"molecule": "Cc1ccc(Nc2ncnc3sc(NC(=O)CCCCCC(=O)NO)cc23)cc1C", "IC50": 14.7}
{"molecule": "O=C(CCCCC(=O)Nc1cc2c(Nc3ccc(Cl)c(C(F)(F)F)c3)ncnc2s1)NO", "IC50": 607}
{"molecule": "O=C(CCCCCCC(=O)Nc1cc2c(Nc3cccc(Cl)c3F)ncnc2s1)NO", "IC50": 14.6}
{"target": "T1, Protein deacetylase HDAC6 (Homo sapiens, UniProt Q9UBN7)", "T1 sequence (Q9UBN7 whole entry)": "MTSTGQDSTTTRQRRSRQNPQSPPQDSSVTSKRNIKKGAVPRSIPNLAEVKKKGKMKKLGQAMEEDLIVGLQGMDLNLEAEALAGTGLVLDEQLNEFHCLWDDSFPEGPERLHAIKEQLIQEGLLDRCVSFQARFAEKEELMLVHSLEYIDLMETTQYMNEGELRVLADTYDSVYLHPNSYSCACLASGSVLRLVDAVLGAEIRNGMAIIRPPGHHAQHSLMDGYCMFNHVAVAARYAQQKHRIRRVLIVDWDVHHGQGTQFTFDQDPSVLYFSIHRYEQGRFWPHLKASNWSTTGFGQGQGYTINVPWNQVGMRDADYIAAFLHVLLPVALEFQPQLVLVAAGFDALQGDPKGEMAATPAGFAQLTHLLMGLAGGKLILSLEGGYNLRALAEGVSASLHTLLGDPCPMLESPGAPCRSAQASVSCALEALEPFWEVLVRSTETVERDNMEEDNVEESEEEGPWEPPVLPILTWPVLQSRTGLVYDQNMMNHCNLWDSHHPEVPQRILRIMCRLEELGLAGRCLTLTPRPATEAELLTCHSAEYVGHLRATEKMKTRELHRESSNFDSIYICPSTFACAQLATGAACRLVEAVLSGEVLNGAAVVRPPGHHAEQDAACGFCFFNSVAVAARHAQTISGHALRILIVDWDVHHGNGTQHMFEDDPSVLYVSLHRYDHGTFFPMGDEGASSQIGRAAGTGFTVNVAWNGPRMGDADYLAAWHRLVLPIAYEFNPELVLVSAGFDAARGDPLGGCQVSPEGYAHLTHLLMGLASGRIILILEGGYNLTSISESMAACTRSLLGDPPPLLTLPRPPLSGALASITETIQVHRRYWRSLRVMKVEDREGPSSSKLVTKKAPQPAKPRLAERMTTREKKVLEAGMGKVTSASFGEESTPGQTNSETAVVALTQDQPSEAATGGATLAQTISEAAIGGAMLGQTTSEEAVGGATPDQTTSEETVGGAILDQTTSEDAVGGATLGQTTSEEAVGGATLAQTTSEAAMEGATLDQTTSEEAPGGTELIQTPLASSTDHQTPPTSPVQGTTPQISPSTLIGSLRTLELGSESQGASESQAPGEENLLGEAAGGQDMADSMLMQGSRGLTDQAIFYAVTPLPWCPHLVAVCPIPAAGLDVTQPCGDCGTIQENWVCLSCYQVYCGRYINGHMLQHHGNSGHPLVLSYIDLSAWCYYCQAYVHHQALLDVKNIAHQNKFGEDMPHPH", "assay": "Inhibition of human recombinant full length HDAC6 using (Boc-Lys (-acetyl)-AMC substrate after 30 mins", "conditions": "not given", "units": {"IC50": "nM"}}
{"molecule": "O=C(CCCCCCC(=O)Nc1cc2c(Nc3ccc(F)cc3F)ncnc2s1)NO", "IC50": 7.88}
{"molecule": "O=C(CCCCCCC(=O)Nc1cc2c(Nc3cccc(Cl)c3)ncnc2s1)NO", "IC50": 8.58}
{"molecule": "O=C(CCCCCCC(=O)Nc1cc2c(Nc3ccc(I)cc3F)ncnc2s1)NO", "IC50": 6.55}
{"molecule": "O=C(CCCCCC(=O)Nc1cc2c(Nc3ccc(Cl)c(C(F)(F)F)c3)ncnc2s1)NO", "IC50": 30}
{"molecule": "Cc1ccc(Nc2ncnc3sc(NC(=O)CCCCCC(=O)NO)cc23)cc1", "IC50": 19.7}
{"molecule": "O=C(CCCCCC(=O)Nc1cc2c(Nc3ccc(F)c(Cl)c3)ncnc2s1)NO", "IC50": 24}
{"molecule": "O=C(CCCCCCC(=O)Nc1cc2c(Nc3ccc(Cl)c(C(F)(F)F)c3)ncnc2s1)NO", "IC50": 11.5}
{"molecule": "O=C(CCCCCCC(=O)Nc1cc2c(Nc3ccc(Br)cc3F)ncnc2s1)NO", "IC50": 8.87}
{"molecule": "O=C(CCCCCC(=O)Nc1cc2c(Nc3ccccc3)ncnc2s1)NO", "IC50": 27}
{"molecule": "O=C(CCCCC(=O)Nc1cc2c(Nc3ccc(F)c(Cl)c3)ncnc2s1)NO", "IC50": 569}
{"molecule": "Cc1ccc(Nc2ncnc3sc(NC(=O)CCCCCC(=O)NO)cc23)cc1C", "IC50": 16.9}
{"molecule": "O=C(CCCCCCC(=O)Nc1cc2c(Nc3cccc(Cl)c3F)ncnc2s1)NO", "IC50": 8.46}
{"tested_on": "not listed separately", "assay": "Antiproliferative activity against human RPMI8226 cells after 72 hrs by WST8 assay", "type": "functional, cell-based", "conditions": "RPMI-8226, 72 h", "units": {"IC50": "nM"}}
{"molecule": "O=C(CCCCCCC(=O)Nc1cc2c(Nc3ccc(F)cc3F)ncnc2s1)NO", "IC50": 7490}
{"molecule": "O=C(CCCCCCC(=O)Nc1cc2c(Nc3cccc(Cl)c3)ncnc2s1)NO", "IC50": 4490}
{"molecule": "O=C(CCCCCCC(=O)Nc1cc2c(Nc3ccc(Br)cc3F)ncnc2s1)NO", "IC50": 8120}
{"molecule": "O=C(CCCCCCC(=O)Nc1cc2c(Nc3cccc(Cl)c3F)ncnc2s1)NO", "IC50": 8170}
